In article PMC9506414, “Novel 2,6,9-Trisubstituted Purines as Potent CDK Inhibitors Alleviating Trastuzumab-Resistance of HER2-Positive Breast Cancers” (Pharmaceuticals, 2022):

Legend:
CYP2C19 = CYP2C19 (Homo sapiens, UniProt P33261); experiment: CYP inhibition; type: in vitro ADME
Description: Table 6 In vitro liver metabolic stability and activity against CYPs of potent analogues. | column: CYP % Activity at 10 μM / 2C19

CYP2D6 = CYP2D6 (Homo sapiens, UniProt P10635); experiment: CYP inhibition; type: in vitro ADME
Chain of CYP2D6 (P10635 whole entry): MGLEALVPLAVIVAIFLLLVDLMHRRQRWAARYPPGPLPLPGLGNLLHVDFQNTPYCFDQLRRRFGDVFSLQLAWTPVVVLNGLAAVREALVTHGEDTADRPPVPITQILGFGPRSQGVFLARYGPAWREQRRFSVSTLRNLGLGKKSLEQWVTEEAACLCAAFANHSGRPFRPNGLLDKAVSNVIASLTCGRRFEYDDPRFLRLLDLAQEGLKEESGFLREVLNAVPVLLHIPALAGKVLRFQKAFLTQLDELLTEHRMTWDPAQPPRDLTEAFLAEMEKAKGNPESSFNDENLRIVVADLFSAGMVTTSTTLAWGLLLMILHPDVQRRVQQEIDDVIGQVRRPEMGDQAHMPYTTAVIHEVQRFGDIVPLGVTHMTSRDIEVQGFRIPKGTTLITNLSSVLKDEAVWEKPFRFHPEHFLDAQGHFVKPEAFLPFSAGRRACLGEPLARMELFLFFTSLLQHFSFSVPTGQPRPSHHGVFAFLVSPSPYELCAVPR
Description: Table 6 In vitro liver metabolic stability and activity against CYPs of potent analogues. | column: CYP % Activity at 10 μM / 2D6

CYP3A4 = CYP3A4 (Homo sapiens, UniProt P08684); experiment: CYP inhibition; type: in vitro ADME
Chain of CYP3A4 (P08684 whole entry): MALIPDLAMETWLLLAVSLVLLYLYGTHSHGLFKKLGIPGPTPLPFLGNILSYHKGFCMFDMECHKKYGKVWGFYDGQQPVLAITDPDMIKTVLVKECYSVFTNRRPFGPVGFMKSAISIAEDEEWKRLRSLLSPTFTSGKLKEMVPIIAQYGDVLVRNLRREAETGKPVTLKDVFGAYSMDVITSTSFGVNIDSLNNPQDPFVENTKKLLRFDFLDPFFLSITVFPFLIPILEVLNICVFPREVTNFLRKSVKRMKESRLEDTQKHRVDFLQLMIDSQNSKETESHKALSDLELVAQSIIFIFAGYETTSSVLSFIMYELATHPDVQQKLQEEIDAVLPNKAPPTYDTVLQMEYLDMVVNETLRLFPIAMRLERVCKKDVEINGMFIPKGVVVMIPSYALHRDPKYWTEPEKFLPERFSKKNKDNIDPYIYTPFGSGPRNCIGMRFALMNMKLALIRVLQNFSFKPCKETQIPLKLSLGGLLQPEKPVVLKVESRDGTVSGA
Description: Table 6 In vitro liver metabolic stability and activity against CYPs of potent analogues. | column: CYP % Activity at 10 μM / 3A4

IRS1 [1] = experiment: Western blot of IRS1 in SK-Br3 cells; type: cell-based, human; details: 40 and 200 nM, 24 h
Text: (§1) For Western blot analysis, the following antibodies were used: anti-Pol II CTD (2629S, Cell Signaling Technology, Danvers, MA, USA), anti-Pol II p-CTD (Ser2) (13499S, Cell Signaling Technology), anti-cyclinK (A301-939A-M, Bethyl Laboratories), anti-IRS1 (3407S, Cell Signaling Technology), anti-WNT1 (SC-514531, Santa Cruz Biotechnology, Dallas, TX, USA), anti-β-actin (MAB1501R, Millipore, Burlington, MA, USA), and horseradish peroxidase (HRP)-conjugated secondary antibodies (anti-mouse GTX213112-01; anti-rabbit GTX213110-01) (Genetex, Irvine, CA, USA).
(§2) Cells were lysed with lysis buffer containing 50 mM Tris pH 7.4, 150 mM NaCl, 1 mM EDTA, 1% NP-40, and 0.25% sodium deoxycholate supplemented with protease-inhibitor and phosphatase-inhibitor cocktails. The lysate samples (25 μg/lane) were loaded onto 6–12% sodium dodecyl sulfate polyacrylamide gel and separated by electrophoresis (SDS-PAGE). The proteins were transferred to nitrocellulose membrane (Gelman Sciences, Ann Arbor, MI, USA) by electroblotting. The membranes were blocked with 5% non-fat dry milk (MB Cell, Seoul, Korea), incubated with primary antibodies for overnight at 4 °C. After the washing steps were performed with TBST solution, the membranes were incubated with HRP-conjugated secondary antibodies for 1 h at rt. […]

WNT1 [2] = experiment: Western blot of WNT1 in SK-Br3 cells; type: cell-based, human; details: 40 and 200 nM, 24 h
Text: as §1, §2

IRS1 [3] = experiment: Western blot of IRS1 in HCC1954 cells; type: cell-based, human; details: 40 and 200 nM, 24 h
Text: as §1, §2

WNT1 [4] = experiment: Western blot of WNT1 in HCC1954 cells; type: cell-based, human; details: 40 and 200 nM, 24 h
Text: as §1, §2

CDK12/CyclinK = CDK12/CyclinK (Homo sapiens, UniProt Q9NYV4); experiment: In vitro CDK12/cyclinK kinase assay; type: biochemical; design: purchased Reaction Biology Corp. (CRO that ran the assay); details: Table 5; means and standard deviations from three independent assays; read-out: CDK12/CyclinK (IC50/μM)
Chain of CDK12/CyclinK (Q9NYV4 whole entry): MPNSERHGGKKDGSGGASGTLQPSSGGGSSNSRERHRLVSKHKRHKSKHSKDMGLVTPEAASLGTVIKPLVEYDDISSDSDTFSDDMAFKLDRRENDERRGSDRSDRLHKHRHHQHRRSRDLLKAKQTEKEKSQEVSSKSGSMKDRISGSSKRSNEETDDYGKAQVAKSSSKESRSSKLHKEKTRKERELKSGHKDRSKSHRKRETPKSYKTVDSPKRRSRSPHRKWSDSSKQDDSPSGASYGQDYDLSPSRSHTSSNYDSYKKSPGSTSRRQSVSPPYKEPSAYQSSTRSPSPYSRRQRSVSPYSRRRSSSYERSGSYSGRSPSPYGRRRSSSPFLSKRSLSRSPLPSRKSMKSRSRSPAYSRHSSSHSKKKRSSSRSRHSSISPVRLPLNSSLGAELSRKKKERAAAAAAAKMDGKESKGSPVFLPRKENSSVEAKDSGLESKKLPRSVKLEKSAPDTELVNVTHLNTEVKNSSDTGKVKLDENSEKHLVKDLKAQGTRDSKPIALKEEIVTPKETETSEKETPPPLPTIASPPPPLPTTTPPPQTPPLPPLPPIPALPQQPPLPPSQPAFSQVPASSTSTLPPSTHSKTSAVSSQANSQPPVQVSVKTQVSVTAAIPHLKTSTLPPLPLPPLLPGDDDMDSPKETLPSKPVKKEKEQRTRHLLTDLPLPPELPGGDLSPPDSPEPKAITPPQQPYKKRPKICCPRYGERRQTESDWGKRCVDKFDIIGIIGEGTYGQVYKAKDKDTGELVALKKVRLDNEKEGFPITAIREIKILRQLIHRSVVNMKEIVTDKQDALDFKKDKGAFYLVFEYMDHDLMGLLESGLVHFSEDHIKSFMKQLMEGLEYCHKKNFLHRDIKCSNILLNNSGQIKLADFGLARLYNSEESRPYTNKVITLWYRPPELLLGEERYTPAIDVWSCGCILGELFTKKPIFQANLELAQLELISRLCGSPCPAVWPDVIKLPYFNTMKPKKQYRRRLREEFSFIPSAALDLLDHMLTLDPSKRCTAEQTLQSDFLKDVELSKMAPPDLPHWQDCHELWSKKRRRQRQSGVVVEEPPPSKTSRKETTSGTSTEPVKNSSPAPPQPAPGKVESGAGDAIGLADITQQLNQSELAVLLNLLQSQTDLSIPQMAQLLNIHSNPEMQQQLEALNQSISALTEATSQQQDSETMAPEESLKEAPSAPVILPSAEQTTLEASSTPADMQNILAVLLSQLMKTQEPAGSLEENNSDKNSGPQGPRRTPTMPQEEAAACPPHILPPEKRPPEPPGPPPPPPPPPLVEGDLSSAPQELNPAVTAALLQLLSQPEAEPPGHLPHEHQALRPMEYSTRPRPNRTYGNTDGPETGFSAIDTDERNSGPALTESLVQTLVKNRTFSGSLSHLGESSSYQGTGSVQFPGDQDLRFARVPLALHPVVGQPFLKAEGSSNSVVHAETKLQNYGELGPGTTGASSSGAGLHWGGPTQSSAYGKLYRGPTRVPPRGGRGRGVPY
Chain of CDK12/CyclinK (O75909 whole entry partner): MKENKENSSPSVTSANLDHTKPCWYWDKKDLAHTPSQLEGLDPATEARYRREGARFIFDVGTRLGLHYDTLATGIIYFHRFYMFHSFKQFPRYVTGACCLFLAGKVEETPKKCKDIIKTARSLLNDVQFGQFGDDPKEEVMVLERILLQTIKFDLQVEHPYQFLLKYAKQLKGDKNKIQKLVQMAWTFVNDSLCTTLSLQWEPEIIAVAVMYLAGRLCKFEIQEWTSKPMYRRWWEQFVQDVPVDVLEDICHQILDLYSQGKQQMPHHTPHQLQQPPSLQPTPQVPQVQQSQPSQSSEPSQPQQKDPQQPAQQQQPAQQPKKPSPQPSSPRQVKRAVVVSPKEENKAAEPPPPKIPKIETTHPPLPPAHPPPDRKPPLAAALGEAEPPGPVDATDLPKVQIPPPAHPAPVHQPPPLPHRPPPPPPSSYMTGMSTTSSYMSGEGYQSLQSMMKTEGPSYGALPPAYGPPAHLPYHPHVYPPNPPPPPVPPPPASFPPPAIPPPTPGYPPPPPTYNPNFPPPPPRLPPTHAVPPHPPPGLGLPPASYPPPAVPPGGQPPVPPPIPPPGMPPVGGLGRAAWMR
Description: (§3) In vitro CDK12/cyclinK assays for all compounds and in vitro kinome-wide inhibition profiling of 30d at 10 μM were performed by a CRO company (Reaction Biology Corp., San Diego, CA, USA).

CDK3 = system: CDK3; design: method as in HMS LINCS database; details: 10 μM, ref HMS LINCS database; cited from earlier work
TLK2 = target: T1, TLK2 (Homo sapiens, UniProt Q86UE8); design: method as in HMS LINCS database; details: 10 μM, ref HMS LINCS database; cited from earlier work
T1 construct: purchased Reaction Biology Corp

GSK3a = target: T2, GSK3a (Homo sapiens, UniProt P49840); design: method as in HMS LINCS database; details: 10 μM, ref HMS LINCS database; cited from earlier work
T2 construct: purchased Reaction Biology Corp

DYRK1B = target: T3, DYRK1B (Homo sapiens, UniProt Q9Y463); design: method as in HMS LINCS database; details: 10 μM, ref HMS LINCS database; cited from earlier work
T3 construct: purchased Reaction Biology Corp

ACVR1 = target: T4, ACVR1 (Homo sapiens, UniProt Q04771); experiment: Kinome-wide inhibition profiling; type: biochemical
T4 construct: purchased Reaction Biology Corp
Description: as §3

CDC7/DBF4 = target: T5, CDC7/DBF4 (Homo sapiens, UniProt O00311); experiment: Kinome-wide inhibition profiling; type: biochemical
T5 construct: purchased Reaction Biology Corp
Description: as §3

CTK = target: T6, CTK (Homo sapiens, UniProt P42679); experiment: Kinome-wide inhibition profiling; type: biochemical
T6 construct: purchased Reaction Biology Corp
Description: as §3

ERK1 = target: T7, ERK1 (Homo sapiens, UniProt P27361); experiment: Kinome-wide inhibition profiling; type: biochemical
T7 construct: purchased Reaction Biology Corp
Description: as §3

FGFR1 = target: T8, FGFR1 (Homo sapiens, UniProt P11362); experiment: Kinome-wide inhibition profiling; type: biochemical
T8 construct: purchased Reaction Biology Corp
Description: as §3

Haspin = target: T9, Haspin (Homo sapiens, UniProt Q8TF76); experiment: Kinome-wide inhibition profiling; type: biochemical
T9 construct: purchased Reaction Biology Corp
Description: as §3

JNK3 = target: T10, JNK3 (Homo sapiens, UniProt P53779); experiment: Kinome-wide inhibition profiling; type: biochemical
T10 construct: purchased Reaction Biology Corp
Description: as §3

LKB1 = target: T11, LKB1 (Homo sapiens, UniProt Q15831); experiment: Kinome-wide inhibition profiling; type: biochemical
T11 construct: purchased Reaction Biology Corp
T11 sequence (Q15831 whole entry): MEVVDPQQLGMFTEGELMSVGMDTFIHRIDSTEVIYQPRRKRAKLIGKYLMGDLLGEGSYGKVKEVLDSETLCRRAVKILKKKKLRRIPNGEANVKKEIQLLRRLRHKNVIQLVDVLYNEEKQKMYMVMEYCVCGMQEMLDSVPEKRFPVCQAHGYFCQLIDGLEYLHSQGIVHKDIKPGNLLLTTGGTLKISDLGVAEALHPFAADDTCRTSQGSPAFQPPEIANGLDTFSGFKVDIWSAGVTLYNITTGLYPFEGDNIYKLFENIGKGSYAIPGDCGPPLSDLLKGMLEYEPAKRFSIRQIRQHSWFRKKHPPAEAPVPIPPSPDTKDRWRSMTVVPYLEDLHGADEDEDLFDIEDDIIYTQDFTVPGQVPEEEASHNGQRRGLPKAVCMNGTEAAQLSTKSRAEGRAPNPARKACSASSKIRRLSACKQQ
T11 sequence (Q7RTN6 whole entry partner): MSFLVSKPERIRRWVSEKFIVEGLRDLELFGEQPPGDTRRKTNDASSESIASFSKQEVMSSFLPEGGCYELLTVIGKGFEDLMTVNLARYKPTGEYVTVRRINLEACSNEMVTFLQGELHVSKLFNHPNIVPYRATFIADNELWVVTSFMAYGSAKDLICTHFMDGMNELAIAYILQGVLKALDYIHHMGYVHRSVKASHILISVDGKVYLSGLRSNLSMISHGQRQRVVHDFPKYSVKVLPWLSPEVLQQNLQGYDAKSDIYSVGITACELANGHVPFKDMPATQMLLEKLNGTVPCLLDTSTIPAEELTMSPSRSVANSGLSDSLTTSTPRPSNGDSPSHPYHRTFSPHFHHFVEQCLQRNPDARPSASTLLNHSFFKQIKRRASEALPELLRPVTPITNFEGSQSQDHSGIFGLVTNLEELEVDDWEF
T11 sequence (Q9Y376 whole entry partner): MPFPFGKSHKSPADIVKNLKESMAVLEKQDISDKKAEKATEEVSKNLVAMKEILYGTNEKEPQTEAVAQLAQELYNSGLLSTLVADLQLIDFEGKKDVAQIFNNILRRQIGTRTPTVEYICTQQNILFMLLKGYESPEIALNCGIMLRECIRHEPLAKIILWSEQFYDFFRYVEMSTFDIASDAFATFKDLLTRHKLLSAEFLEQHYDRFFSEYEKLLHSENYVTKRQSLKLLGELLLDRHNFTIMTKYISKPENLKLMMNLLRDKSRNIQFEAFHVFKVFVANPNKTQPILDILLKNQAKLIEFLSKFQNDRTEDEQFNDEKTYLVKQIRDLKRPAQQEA
Description: as §3

MARK2 = target: T12, MARK2 (Homo sapiens, UniProt Q7KZI7); experiment: Kinome-wide inhibition profiling; type: biochemical
T12 construct: purchased Reaction Biology Corp
Description: as §3

MEK1 = target: T13, MEK1 (Homo sapiens, UniProt Q02750); experiment: Kinome-wide inhibition profiling; type: biochemical
T13 construct: purchased Reaction Biology Corp
Description: as §3

MLK1 = target: T14, MLK1 (Homo sapiens, UniProt P80192); experiment: Kinome-wide inhibition profiling; type: biochemical
T14 construct: purchased Reaction Biology Corp
Description: as §3

MNK1 = target: T15, MNK1 (Homo sapiens, UniProt Q9BUB5); experiment: Kinome-wide inhibition profiling; type: biochemical
T15 construct: purchased Reaction Biology Corp
Description: as §3

PKN1 = target: T16, PKN1 (Homo sapiens, UniProt Q16512); experiment: Kinome-wide inhibition profiling; type: biochemical
T16 construct: purchased Reaction Biology Corp
Description: as §3

PLK1 = target: T17, PLK1 (Homo sapiens, UniProt P53350); experiment: Kinome-wide inhibition profiling; type: biochemical
T17 construct: purchased Reaction Biology Corp
Description: as §3

QSK = target: T18, QSK (Homo sapiens, UniProt Q9Y2K2); experiment: Kinome-wide inhibition profiling; type: biochemical
T18 construct: purchased Reaction Biology Corp
Description: as §3

TAOK2 = target: T19, TAOK2 (Homo sapiens, UniProt Q9UL54); experiment: Kinome-wide inhibition profiling; type: biochemical
T19 construct: purchased Reaction Biology Corp
Description: as §3

TESK2 = target: T20, TESK2 (Homo sapiens, UniProt Q96S53); experiment: Kinome-wide inhibition profiling; type: biochemical
T20 construct: purchased Reaction Biology Corp
Description: as §3

TYK2 = target: T21, TYK2 (Homo sapiens, UniProt P29597); experiment: Kinome-wide inhibition profiling; type: biochemical
T21 construct: purchased Reaction Biology Corp
Description: as §3

Chain of CYP2C19 (P33261 whole entry): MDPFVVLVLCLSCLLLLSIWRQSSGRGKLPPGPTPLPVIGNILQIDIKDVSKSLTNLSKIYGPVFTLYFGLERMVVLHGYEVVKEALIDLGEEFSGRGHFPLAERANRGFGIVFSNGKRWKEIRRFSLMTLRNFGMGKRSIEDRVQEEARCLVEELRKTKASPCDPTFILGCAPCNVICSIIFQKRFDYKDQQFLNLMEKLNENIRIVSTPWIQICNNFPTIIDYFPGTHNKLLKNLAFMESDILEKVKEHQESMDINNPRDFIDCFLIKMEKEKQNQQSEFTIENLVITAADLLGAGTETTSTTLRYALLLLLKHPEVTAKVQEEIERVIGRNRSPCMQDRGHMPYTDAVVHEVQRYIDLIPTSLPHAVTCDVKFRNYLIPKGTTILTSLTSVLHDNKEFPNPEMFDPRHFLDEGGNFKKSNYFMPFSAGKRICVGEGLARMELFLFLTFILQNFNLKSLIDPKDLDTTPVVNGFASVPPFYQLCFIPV

For `CCn1cnc2c(NCc3ccc(-c4ccccn4)nc3)nc(-c3cnc(N)nc3)nc21` [Compound 30e, N-([2,2′-Bipyridin]-5-ylmethyl)-2-(2-aminopyrimidin-5-yl)-9-ethyl-9H-purin-6-amine], which “CYP % Activity at 10 μM 2C19” value (CYP2C19) is on record?
The value was 72.6%.

What about the “CYP % Activity at 10 μM 2D6” value (CYP2D6) of the same compound?
The value was 92.1%.

And the “CYP % Activity at 10 μM 3A4” value (CYP3A4)?
Its value is 92.8%.

What about the “IRS1 expression level (Western blot)” value (IRS1 [1]) of the same compound?
The value was “strong suppression of IRS1 and WNT1”.

And the “WNT1 expression level (Western blot)” value (WNT1 [2])?
Its value is “strong suppression of IRS1 and WNT1”.

What about the “IRS1 expression level (Western blot)” value (IRS1 [3]) of the same compound?
Its value is “strong suppression of IRS1 and WNT1”.

And the “WNT1 expression level (Western blot)” value (WNT1 [4])?
The value was “strong suppression of IRS1 and WNT1”.

What about the IC50 (CDK12/CyclinK) of the same compound?
The IC50 was 0.085 ± 0.011 µM.

For `CCc1cnn2c(NCc3ccc[n+]([O-])c3)cc(N3CCCC[C@H]3CCO)nc12` [Dinaciclib], which “% control” value (CDK3) is on record?
The value was 0.3%.

And the “% control” value (TLK2)?
The value was 0.5%.

What about the “% control” value (GSK3a) of the same compound?
Its value is 3.0%.

And the “% control” value (DYRK1B)?
The value was 6.0%.

Which results are given for `CCn1cnc2c(NCc3ccc(-c4ccccn4)nc3)nc(-c3ccc(N)nc3)nc21` [Compound 30d, N-([2,2′-Bipyridin]-5-ylmethyl)-2-(6-aminopyridin-3-yl)-9-ethyl-9H-purin-6-amine]?
CYP % Activity at 10 μM 2C19 (CYP2C19): 68.1%; CYP % Activity at 10 μM 2D6 (CYP2D6): 81.0%; CYP % Activity at 10 μM 3A4 (CYP3A4): 43.0%; IRS1 expression level (Western blot) (IRS1 [1]): strong suppression of IRS1 and WNT1; WNT1 expression level (Western blot) (WNT1 [2]): strong suppression of IRS1 and WNT1; IRS1 expression level (Western blot) (IRS1 [3]): strong suppression of IRS1 and WNT1; WNT1 expression level (Western blot) (WNT1 [4]): strong suppression of IRS1 and WNT1; remaining activity at 10 µM (ACVR1): 118%; remaining activity at 10 µM (CDC7/DBF4): 98.2%; remaining activity at 10 µM (CTK): 87.6%; remaining activity at 10 µM (ERK1): 9.4%; remaining activity at 10 µM (FGFR1): 28.8%; remaining activity at 10 µM (Haspin): 79.4%; remaining activity at 10 µM (JNK3): 48.7%; inhibition at 10 µM (LKB1): > 95%; remaining activity at 10 µM (LKB1): 0.1%; remaining activity at 10 µM (MARK2): 74.3%; remaining activity at 10 µM (MEK1): 149%; remaining activity at 10 µM (MLK1): 27.9%; remaining activity at 10 µM (MNK1): 89.3%; remaining activity at 10 µM (PKN1): 85.4%; remaining activity at 10 µM (PLK1): 68.3%; remaining activity at 10 µM (QSK): 30.2%; remaining activity at 10 µM (TAOK2): 23.8%; remaining activity at 10 µM (TESK2): 83.7%; remaining activity at 10 µM (TYK2): 90.7%; IC50 (CDK12/CyclinK): 0.021 ± 0.007 µM
